The target of the assay is T1, Human M4 receptors (Homo sapiens, UniProt P08173).
T1 construct: expressed in transfected cells
T1 sequence (P08173 1-479): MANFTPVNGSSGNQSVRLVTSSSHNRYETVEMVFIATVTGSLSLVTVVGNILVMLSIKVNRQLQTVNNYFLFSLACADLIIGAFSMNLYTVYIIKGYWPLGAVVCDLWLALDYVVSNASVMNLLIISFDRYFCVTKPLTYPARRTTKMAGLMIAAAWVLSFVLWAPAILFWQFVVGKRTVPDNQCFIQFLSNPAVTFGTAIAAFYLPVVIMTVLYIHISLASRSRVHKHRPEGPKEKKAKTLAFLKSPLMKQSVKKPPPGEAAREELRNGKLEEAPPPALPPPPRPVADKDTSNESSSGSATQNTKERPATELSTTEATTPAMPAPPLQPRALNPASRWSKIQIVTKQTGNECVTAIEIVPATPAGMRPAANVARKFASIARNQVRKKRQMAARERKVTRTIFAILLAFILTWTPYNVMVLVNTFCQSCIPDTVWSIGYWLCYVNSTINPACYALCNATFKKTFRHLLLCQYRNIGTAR
Description: M4 PAM cAMP assay (GloSensor). In kind it is cell-based. The note with it: HEK293 GloSensor cells expressing hM4, with EC20 acetylcholine and isoproterenol, geometric mean of 2-4 determinations unless footnoted (b: >=5, c: single). Put shortly:
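hM4-expressing HEK293 GloSensor cells were equilibrated 2 h at RT with GloSensor reagent, then given compound with EC20 acetylcholine and isoproterenol (EC80) for 10 min at RT before reading. Effect normalised to 10 μM acetylcholine and DMSO; 10-point duplicate curves fitted 4-parameter for EC50 and Emax (top asymptote).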
(In general: Changes in cAMP serve as a functional read-out for many G protein-coupled receptors.)

Broadly, the pEC50 is the EC50 on a negative log10 scale, so that one unit is a factor of ten.

pEC50: −log10 of the molar value.

Regarding `CNc1nc(C)c(C)c2c1CN(C(=O)[C@@H]1CCOC1)C2` [Example 59, [6,7-dimethyl-4-(methylamino)-1,3-dihydro-2H-pyrrolo[3,4-c]pyridin-2-yl][(3R)-tetrahydrofuran-3-yl]methanone], the pEC50 is 6.83. Besides, the Emax (Emax = maximum asymptote of fitted dose response curve, read-out: EC50 Mean Asymptote Maximum (%)) turned out to be 95.5%.

The record behind these values is patent US11198692B2, “Dihydro-pyrrolo-pyridine derivatives” (Pfizer Inc., priority 2017, dated 2021).
